Assay results from patent publication US8785457B2 (Cellzome Limited, priority 2009, dated 2014).

Legend:
[1] = system: Delayed type hypersensitivity (DTH) reaction; test: Delayed type hypersensitivity in mice (KLH, ear thickness); assay type: in vivo
Text: The Delayed type hypersensitivity (DTH) reaction is observed when subjects are immunized with an antigen, and then subsequently challenged with the same antigen to induce a localized inflammation. The model can be inhibited by drugs affecting a range of immune and inflammatory mechanisms. In this instance, a DTH reaction is induced in mice using Keyhole Limpet Hemocyanin (KLH), measuring inflammation in the ear pinna. Keyhole Limpet Hemocyanin (KLH; Sigma, catalogue number H7017) preparation: […] Aliquots were stored at −20° C. For the first immunization (day 0) the KLH stock solution (10 mg/ml) was diluted to 0.5 mg/ml with PBS (1:20). Then a 1:1 mixture with Complete Freund's Adjuvant (CFA; Sigma catalogue number 5881) was prepared (final KLH concentration 0.25 mg/ml). For the second immunization (day 5) the KLH stock solution was diluted to 1 mg/ml with 0.9% NaCl (1:10). Mice (Balb/c ˜9 weeks of age) were immunized with 2×100 μl of a 1:1 emulsion of KLH in CFA (25 μg KLH/site) injected subcutaneously into the right and left flank. On day 5 post-injection, mice received a challenge of 10 μg KLH (in 10 μl physiological saline), injected intradermally into the right ear. On day 5, 6 and 7 the ear thickness was measured with a caliper. Measurements were performed one hour after compound administration in the morning. Compound CZC1 corresponding to example 34 of the present invention was dosed once daily orally (p.o.) from day 0 to day 7 (Table 10). Vehicle: 0.5% carboxymethylcellulose (CMC). Doses: 3, 10 and 30 mg/kg. Cyclosporine A (Calbiochem) was dosed twice daily orally (p.o., 8 am and 4 pm from day 0 to day 7). Vehicle: 5% DMSO, 0.5 CMC. Dose: 25 mg/kg. Control treatment: 5% DMSO, 0.5% CMC administered p.o. [table]

[2] = system: Salmonella typhimurium strain TA1535; test: Ames plate assay, TA1535
Description: (§1) Certain compounds of the invention were tested for their potential to induce gene mutations in bacterial strains of Salmonella typhimurium (strains TA1535, TA1537, TA98, TA100) and Escherichia coli (strain WP2uvrA(pKM101)) in a bacterial mutation assay in the absence and presence of metabolite activation (rat S9-mix). Compounds are tested at the following dose levels: 50, 150, 500, or 1500 μg/plate.
(§2) Vehicle control treatment is the vehicle used to prepare the test compound formulation diluted to the same extent as the test compound solution. Positive controls using known mutagens are included for each strain with and without rat S9 mix. Four plates are used for the vehicle control and two replicate plates per dose per strain for the treated groups and for each positive control. At the end of incubation the number of revertant colonies per plate are recorded and mean values calculated for each vehicle control, positive control and concentration of test compound used. Results are also expressed as a ratio of the mean values to the mean concurrent vehicle control value (i.e. fold increase).

[3] = system: Salmonella typhimurium strain TA1537; test: Ames plate assay, TA1537
Description: as §1, §2

[4] = system: Salmonella typhimurium strain TA98; test: Ames plate assay, TA98
Description: as §1, §2

[5] = system: Salmonella typhimurium strain TA100; test: Ames plate assay, TA100
Description: as §1, §2

[6] = system: Escherichia coli strain WP2uvrA(pKM101); test: Ames plate assay, WP2uvrA(pKM101)
Description: as §1, §2

CCOC(=O)N1Cc2nc(-c3ccc(NC(=O)NC4CC4)cc3)nc(N3CCOC[C@@H]3C)c2C1 [Example 34, (S)-ethyl 2-(4-(3-cyclopropylureido)phenyl)-4-(3-methylmorpholino)-5H-pyrrolo[3,4-d]pyrimidine-6(7H)-carboxylate]
significantly reduced: increase in ear thickness ([1]; 3 mg/kg p.o. once daily day 0 to day 7, 24 hours post-challenge) | increase in ear thickness ([1]; 10 mg/kg p.o. once daily day 0 to day 7, 24 hours post-challenge) | increase in ear thickness ([1]; 30 mg/kg p.o. once daily day 0 to day 7, 24 hours post-challenge)
−: Ames plate assay TA1535 +S9 ([2]; TA1535, +S9, 50 μg/Plate) | Ames plate assay TA1535 +S9 ([2]; TA1535, +S9, 150 μg/Plate) | Ames plate assay TA1535 +S9 ([2]; TA1535, +S9, 500 μg/Plate) | Ames plate assay TA1535 +S9 ([2]; TA1535, +S9, 1500 μg/Plate) | Ames plate assay TA1535 −S9 ([2]; TA1535, −S9, 50 μg/Plate) | Ames plate assay TA1535 −S9 ([2]; TA1535, −S9, 150 μg/Plate) | Ames plate assay TA1535 −S9 ([2]; TA1535, −S9, 500 μg/Plate) | Ames plate assay TA1535 −S9 ([2]; TA1535, −S9, 1500 μg/Plate) | Ames plate assay TA1537 +S9 ([3]; TA1537, +S9, 50 μg/Plate) | Ames plate assay TA1537 +S9 ([3]; TA1537, +S9, 150 μg/Plate) | Ames plate assay TA1537 +S9 ([3]; TA1537, +S9, 500 μg/Plate) | Ames plate assay TA1537 +S9 ([3]; TA1537, +S9, 1500 μg/Plate) | Ames plate assay TA1537 −S9 ([3]; TA1537, −S9, 50 μg/Plate) | Ames plate assay TA1537 −S9 ([3]; TA1537, −S9, 150 μg/Plate) | Ames plate assay TA1537 −S9 ([3]; TA1537, −S9, 500 μg/Plate) | Ames plate assay TA1537 −S9 ([3]; TA1537, −S9, 1500 μg/Plate) | Ames plate assay TA98 +S9 ([4]; TA98, +S9, 50 μg/Plate) | Ames plate assay TA98 +S9 ([4]; TA98, +S9, 150 μg/Plate) | Ames plate assay TA98 +S9 ([4]; TA98, +S9, 500 μg/Plate) | Ames plate assay TA98 +S9 ([4]; TA98, +S9, 1500 μg/Plate) | Ames plate assay TA98 −S9 ([4]; TA98, −S9, 50 μg/Plate) | Ames plate assay TA98 −S9 ([4]; TA98, −S9, 150 μg/Plate) | Ames plate assay TA98 −S9 ([4]; TA98, −S9, 500 μg/Plate) | Ames plate assay TA98 −S9 ([4]; TA98, −S9, 1500 μg/Plate) | Ames plate assay TA100 +S9 ([5]; TA100, +S9, 50 μg/Plate) | Ames plate assay TA100 +S9 ([5]; TA100, +S9, 150 μg/Plate) | Ames plate assay TA100 +S9 ([5]; TA100, +S9, 500 μg/Plate) | Ames plate assay TA100 +S9 ([5]; TA100, +S9, 1500 μg/Plate) | Ames plate assay TA100 −S9 ([5]; TA100, −S9, 50 μg/Plate) | Ames plate assay TA100 −S9 ([5]; TA100, −S9, 150 μg/Plate) | Ames plate assay TA100 −S9 ([5]; TA100, −S9, 500 μg/Plate) | Ames plate assay TA100 −S9 ([5]; TA100, −S9, 1500 μg/Plate) | Ames plate assay WP2uvrA (pKM101) +S9 ([6]; +S9, 50 μg/Plate) | Ames plate assay WP2uvrA (pKM101) +S9 ([6]; +S9, 150 μg/Plate) | Ames plate assay WP2uvrA (pKM101) +S9 ([6]; +S9, 500 μg/Plate) | Ames plate assay WP2uvrA (pKM101) +S9 ([6]; +S9, 1500 μg/Plate) | Ames plate assay WP2uvrA (pKM101) −S9 ([6]; −S9, 50 μg/Plate) | Ames plate assay WP2uvrA (pKM101) −S9 ([6]; −S9, 150 μg/Plate) | Ames plate assay WP2uvrA (pKM101) −S9 ([6]; −S9, 500 μg/Plate) | Ames plate assay WP2uvrA (pKM101) −S9 ([6]; −S9, 1500 μg/Plate)
